# Assays:
# [1] = target: T1, Purified recombinant ADAMTS-7 (rat prodomain/human catalytic domain, SEQ ID No. 01 or 02) (Homo sapiens, UniProt Q9UKP4); test: Assay for ADAMTS-7 enzymatic activity (FRET substrate cleavage); format: biochemical; details: FRET substrate SEQ ID No. 11, 120 min at 32° C.; read-out: ADAMTS7-IC50
# T1 construct: rat ADAMTS-7 signal peptide + prodomain (rat 1-217, Q1EHB3) (N); 2xStrep tag (C); 6xHis tag (C); made in house; host or cells: Expi293 cells
# T1 sequence (Q9UKP4 237-537): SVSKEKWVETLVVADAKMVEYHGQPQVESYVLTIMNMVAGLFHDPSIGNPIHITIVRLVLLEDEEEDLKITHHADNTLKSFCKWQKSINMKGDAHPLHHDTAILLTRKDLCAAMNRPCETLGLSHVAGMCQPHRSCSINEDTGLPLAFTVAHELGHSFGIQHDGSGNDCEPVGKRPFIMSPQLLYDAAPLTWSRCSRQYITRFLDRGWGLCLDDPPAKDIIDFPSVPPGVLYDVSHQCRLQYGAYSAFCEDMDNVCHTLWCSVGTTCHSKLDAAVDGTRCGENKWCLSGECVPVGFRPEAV
# Method in brief: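 IC50 values were fitted from percent inhibition across test-compound concentrations. Fluorescence gain (ex 485, em 520 nm) reports cleavage of a thrombospondin-1 (275-289) FRET peptide with QXL520 quencher, after 120 min at 32 °C. The enzyme, about 20 nM, was in HEPES pH 8.0 buffer with NaCl, CaCl2, ZnCl2 and Brij.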
# ADAMTS4 = target: T2, ADAMTS4 (Homo sapiens, UniProt O75173); test: Selectivity assay for ADAMTS-7 modulators (FRET), ADAMTS4; format: biochemical; details: 50 nM enzyme (R&D 4307-AD), 1 μM Dabcyl/Edans FRET substrate, 120 min at 32° C.
# T2 construct: purchased R&D 4307-AD
# T2 sequence (O75173 213-685 limits assumed): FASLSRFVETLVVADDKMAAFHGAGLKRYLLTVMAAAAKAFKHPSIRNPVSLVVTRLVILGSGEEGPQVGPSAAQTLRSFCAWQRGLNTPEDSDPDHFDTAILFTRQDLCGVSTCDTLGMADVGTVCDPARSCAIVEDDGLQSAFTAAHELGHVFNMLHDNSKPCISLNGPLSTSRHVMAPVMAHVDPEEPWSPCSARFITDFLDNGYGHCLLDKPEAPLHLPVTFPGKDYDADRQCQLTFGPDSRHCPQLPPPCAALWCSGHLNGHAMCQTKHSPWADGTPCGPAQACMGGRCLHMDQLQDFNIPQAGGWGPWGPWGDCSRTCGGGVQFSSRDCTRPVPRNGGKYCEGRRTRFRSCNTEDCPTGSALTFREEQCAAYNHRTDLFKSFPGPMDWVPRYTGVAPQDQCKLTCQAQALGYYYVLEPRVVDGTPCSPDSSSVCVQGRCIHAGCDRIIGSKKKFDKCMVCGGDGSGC
# Method in brief: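 Enzyme in 50 mM Tris pH 7.5, 150 mM NaCl, 10 mM CaCl2, 0.05% Brij, preincubated with compound in DMSO; reaction started with FRET substrate. Fluorescence increase read after 120 min at 32° C; IC50 from percent inhibition versus compound concentration.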
Compound,IC50 [1],IC50 (ADAMTS4)
"O=C1NC(=O)C(CNC(=O)c2cnn(-c3ccccc3)n2)(C2CCCC2)N1 (stereo not drawn) [Example 83, ent-N-[(4-cyclopentyl-2,5-dioxoimidazolidin-4-yl)methyl]-2-phenyl-2H-1,2,3-triazole-4-carboxamide]",120 nM,11000 nM
"O=C1NC(=O)C(CNC(=O)c2cnn(-c3ccc(F)cc3F)n2)(C2CCC2)N1 (stereo not drawn) [Example 86, ent-N-{[4-cyclobutyl-2,5-dioxoimidazolidin-4-yl]methyl}-2-(2,4-difluorophenyl)-2H-1,2,3-triazole-4-carboxamide]",63 nM,8500 nM
"O=C1NC(=O)C(CNC(=O)c2cnn(-c3cc(F)c(F)c(F)c3)n2)(C2CCC2)N1 (stereo not drawn) [Example 90, ent-N-[(4-cyclobutyl-2,5-dioxoimidazolidin-4-yl)methyl]-2-(3,4,5-trifluorophenyl)-2H-1,2,3-triazole-4-carboxamide]",16 nM,3100 nM
"O=C1NC(=O)C(CNC(=O)c2cnn(-c3cccc(F)c3)n2)(C2CCC2)N1 (stereo not drawn) [Example 93, ent-N-[(4-cyclobutyl-2,5-dioxoimidazolidin-4-yl)methyl]-2-(3-fluorophenyl)-2H-1,2,3-triazole-4-carboxamide]",8 nM,2200 nM
"O=C1NC(=O)C(CNC(=O)c2cnn(-c3ccc(F)c(F)c3)n2)(C2CCC2)N1 (stereo not drawn) [Example 94, ent-N-[(4-cyclobutyl-2,5-dioxoimidazolidin-4-yl)methyl]-2-(3,4-difluorophenyl)-2H-1,2,3-triazole-4-carboxamide]",6 nM,890 nM
"O=C1NC(=O)[C@](CNC(=O)c2cnn(-c3cc(F)c(F)c(F)c3)n2)(C2CC2)N1 [Example 98, N-{[(4R)-4-cyclopropyl-2,5-dioxoimidazolidin-4-yl]methyl}-2-(3,4,5-trifluorophenyl)-2H-1,2,3-triazole-4-carboxamide]",25 nM,1100 nM
"O=C1NC(=O)[C@](CNC(=O)c2cnn(-c3ncccc3F)n2)(C2CC2)N1 [Example 101, N-{[(4R)-4-cyclopropyl-2,5-dioxoimidazolidin-4-yl]methyl}-2-(3-fluoropyridin-2-yl)-2H-1,2,3-triazole-4-carboxamide]",7 nM,14000 nM
"CCC(C)C1(CNC(=O)c2cnn(-c3ccc(F)cc3)n2)NC(=O)NC1=O (centres unmarked) [Example 102, diamix-N-[(4-sec-butyl-2,5-dioxoimidazolidin-4-yl)methyl]-2-(4-fluorophenyl)-2H-1,2,3-triazole-4-carboxamide]",62 nM,2900 nM
"O=C1NC(=O)[C@](CNC(=O)c2cnn(-c3nc4ccccc4s3)n2)(C2CC2)N1 [Example 105, 2-(1,3-benzothiazol-2-yl)-N-{[(4R)-4-cyclopropyl-2,5-dioxoimidazolidin-4-yl]methyl}-2H-1,2,3-triazole-4-carboxamide]",190 nM,11000 nM
"O=C1NC(=O)[C@](CNC(=O)c2cnn(-c3ccc(OC(F)(F)F)cc3)n2)(C2CC2)N1 [Example 106, N-{[(4R)-4-cyclopropyl-2,5-dioxoimidazolidin-4-yl]methyl}-2-[4-(trifluoromethoxy)phenyl]-2H-1,2,3-triazole-4-carboxamide]",190 nM,> 50000 nM
"O=C1NC(=O)C(CNC(=O)c2cnn(-c3ccc(F)cc3)n2)(c2nccs2)N1 (stereo not drawn) [Example 114, ent-N-{[2,5-dioxo-4-(1,3-thiazol-2-yl)imidazolidin-4-yl]methyl}-2-(4-fluorophenyl)-2H-1,2,3-triazole-4-carboxamide]",15 nM,1400 nM
"ent-N-({4-[1-(difluoromethyl)-1H-pyrazol-5-yl]-2,5-dioxoimidazolidin-4-yl}methyl)-2-(4-fluorophenyl)-2H-1,2,3-triazole-4-carboxamide [Example 129]",18 nM,1700 nM

# More lines, now with the values ahead:
IC50 [1],IC50 (ADAMTS4),Compound
20 nM,3300 nM,"CC(C)C1(CNC(=O)c2cnn(-c3cc(F)c(F)c(F)c3)n2)NC(=O)NC1=O (stereo not drawn) [Example 117, ent-N-[(4-isopropyl-2,5-dioxoimidazolidin-4-yl)methyl]-2-(3,4,5-trifluorophenyl)-2H-1,2,3-triazole-4-carboxamide]"
230 nM,7400 nM,"O=C1NC(=O)[C@](CNC(=O)c2cnn(-c3cnsc3)n2)(C2CC2)N1 [Example 132, N-{[(4R)-4-cyclopropyl-2,5-dioxoimidazolidin-4-yl]methyl}-2-(1,2-thiazol-4-yl)-2H-1,2,3-triazole-4-carboxamide]"
190 nM,6200 nM,"O=C1NC(=O)[C@](CNC(=O)c2cnn(-c3ncc(F)cc3F)n2)(C2CC2)N1 [Example 134, N-{[(4R)-4-cyclopropyl-2,5-dioxoimidazolidin-4-yl]methyl}-2-(3,5-difluoropyridin-2-yl)-2H-1,2,3-triazole-4-carboxamide]"
27 nM,3500 nM,"O=C1NC(=O)C(CNC(=O)c2cnn(-c3ccc(F)cc3)n2)(c2ncsc2C(F)(F)F)N1 (stereo not drawn) [Example 136, ent-N-({2,5-dioxo-4-[5-(trifluoromethyl)-1,3-thiazol-4-yl]imidazolidin-4-yl}methyl)-2-(4-fluorophenyl)-2H-1,2,3-triazole-4-carboxamide]"
4 nM,320 nM,"Cn1ccnc1C1(CNC(=O)c2cnn(-c3ccccc3)n2)NC(=O)NC1=O (stereo not drawn) [Example 142, ent-N-{[4-(1-methyl-1H-imidazol-2-yl)-2,5-dioxoimidazolidin-4-yl]methyl}-2-phenyl-2H-1,2,3-triazole-4-carboxamide]"
3 nM,108 nM,"Cn1ccnc1C1(CNC(=O)c2cnn(-c3cc(F)c(F)c(F)c3)n2)NC(=O)NC1=O (stereo not drawn) [Example 146, ent-N-{[4-(1-methyl-1H-imidazol-2-yl)-2,5-dioxoimidazolidin-4-yl]methyl}-2-(3,4,5-trifluorophenyl)-2H-1,2,3-triazole-4-carboxamide]"
12 nM,2500 nM,"O=C1NC(=O)C(CNC(=O)c2cnn(-c3ccc(F)cc3)n2)(c2cscn2)N1 (stereo not drawn) [Example 148, ent-N-{[2,5-dioxo-4-(1,3-thiazol-4-yl)imidazolidin-4-yl]methyl}-2-(4-fluorophenyl)-2H-1,2,3-triazole-4-carboxamide]"
320 nM,17000 nM,"O=C1NC(=O)[C@](CNC(=O)c2cnn(-c3ccc(F)cc3Cl)n2)(C2CC2)N1 [Example 151, 2-(2-chloro-4-fluorophenyl)-N-{[(4R)-4-cyclopropyl-2,5-dioxoimidazolidin-4-yl]methyl}-2H-1,2,3-triazole-4-carboxamide]"
60 nM,1000 nM,"O=C1NC(=O)[C@](CNC(=O)c2cnn(-c3ccc(Cl)cc3F)n2)(C2CC2)N1 [Example 160, 2-(4-chloro-2-fluorophenyl)-N-{[(4R)-4-cyclopropyl-2,5-dioxoimidazolidin-4-yl]methyl}-2H-1,2,3-triazole-4-carboxamide]"
130 nM,7100 nM,"O=C1NC(=O)[C@](CNC(=O)c2cnn(-c3ccc(Cl)cc3Cl)n2)(C2CC2)N1 [Example 161, N-{[(4R)-4-cyclopropyl-2,5-dioxoimidazolidin-4-yl]methyl}-2-(2,4-dichlorophenyl)-2H-1,2,3-triazole-4-carboxamide]"

# — US20230027985A1, “SUBSTITUTED HYDANTOINAMIDES AS ADAMTS7 ANTAGONISTS” (Bayer Aktiengesellschaft, priority 2019, published 2023)
